Measured values taken from US11873298B2, “Compounds and uses thereof” (JANSSEN PHARMACEUTICA NV, priority 2017, dated 2024).
pIC50: −log10 of the molar value.

Assays:
SCD5 = target: T1, SCD5 (Homo sapiens, UniProt Q86SK9); assay: Growth inhibition of humanized yeast strain expressing SCD5 as sole desaturase; format: cell-based; conditions: growth inhibition of humanized yeast strain expressing human SCD5
T1 construct: host or cells: S. cerevisiae ole1Δ strain (W303 pdr1Δ pdr3Δ background), plasmid pRS316 with TDH3 promoter and CYC1 terminator
T1 sequence (Q86SK9 1-330): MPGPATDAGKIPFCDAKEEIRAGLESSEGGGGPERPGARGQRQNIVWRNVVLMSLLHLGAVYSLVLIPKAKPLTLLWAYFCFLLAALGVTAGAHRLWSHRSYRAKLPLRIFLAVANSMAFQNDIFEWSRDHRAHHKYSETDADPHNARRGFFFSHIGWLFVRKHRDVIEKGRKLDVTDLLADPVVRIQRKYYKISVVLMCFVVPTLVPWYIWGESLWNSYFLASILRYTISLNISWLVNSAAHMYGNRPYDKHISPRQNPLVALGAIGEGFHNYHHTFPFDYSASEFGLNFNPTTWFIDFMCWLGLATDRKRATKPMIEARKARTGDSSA
Summary of the method: (§1)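 ole1Δ yeast (W303 pdr1Δ pdr3Δ background) carrying plasmid-borne Ole1, SCD1 or SCD5, grown in uracil-free media; cultures pre-grown in raffinose, seeded at 2× density 0.02 in galactose media with compound. Growth read as OD600 after 24 h at 30° C. for Ole1, 40 h for SCD1/SCD5.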

SCD1 = target: T2, SCD1 (Homo sapiens, UniProt O00767); assay: Growth inhibition of humanized yeast strain expressing SCD1 as sole desaturase; format: cell-based; conditions: growth inhibition of humanized yeast strain expressing human SCD1
T2 construct: host or cells: S. cerevisiae ole1Δ strain (W303 pdr1Δ pdr3Δ background), plasmid pRS316 with TDH3 promoter and CYC1 terminator
T2 sequence (O00767 1-359): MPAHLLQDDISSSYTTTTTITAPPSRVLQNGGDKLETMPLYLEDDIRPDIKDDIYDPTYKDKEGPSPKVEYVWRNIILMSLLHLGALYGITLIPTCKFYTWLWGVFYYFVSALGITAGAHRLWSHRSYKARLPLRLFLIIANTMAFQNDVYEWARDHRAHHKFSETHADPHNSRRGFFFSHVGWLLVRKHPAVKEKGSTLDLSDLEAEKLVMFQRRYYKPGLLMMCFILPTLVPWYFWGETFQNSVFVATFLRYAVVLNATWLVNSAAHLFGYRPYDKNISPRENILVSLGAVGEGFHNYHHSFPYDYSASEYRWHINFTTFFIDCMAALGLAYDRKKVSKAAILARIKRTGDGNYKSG
Summary of the method: as §1

SMILES | pIC50 (SCD5) | pIC50 (SCD1)
CC(C)n1ncc2ccc(-c3noc([C@H]4CC[C@@H](O)CC4)n3)cc21 [Compound 654] | < 4.35 | < 4.35
CC(C)(C)OC(=O)N1CCC(c2nc(-c3ccc4cn(C5CCOC5)nc4c3)no2)CC1 (stereo not shown) [Compound 655] | < 4.35 | < 4.35
CC(C)(C)OC(=O)N1CCC(c2nc(-c3ccc4cn(C5CN(C(=O)OC(C)(C)C)C5)nc4c3)no2)CC1 [Compound 656] | < 4.35 | < 4.35
Cc1noc(N2CCN(c3nc(-c4ccc5cnn(C(C)C)c5c4)no3)CC2)n1 [Compound 657] | 5.04 | < 4.35
CC(C)(C)OC(=O)N1CCC(c2nc(-c3cccc(C4CCOC4)c3)no2)CC1 (stereo not shown) [Compound 658] | 7.05 | < 4.35
O=C(CC1CC1)N1CCN(c2nc(-c3ccc4cnn(C5COC5)c4c3)no2)CC1 [Compound 659] | 5.38 | < 4.35
CC(C)n1ncc2ccc(-c3noc(C4CCN(C(=O)OC(C)(C)C)C=C4F)n3)cc21 (stereo not shown) [Compound 660] | 4.84 | < 4.35
CC(C)(C)OC(=O)N1CCC(c2nc(-c3ccc4cnn(CC5COC5)c4c3)no2)CC1 [Compound 661] | 5.81 | < 4.35
CC(C)(C)OC(=O)N1CCC(c2nc(-c3ccc4c(c3)N(C3COC3)C(=O)CC4)no2)CC1 [Compound 662] | < 4.35 | < 4.35
CC(C)(C)OC(=O)N1CCN(c2nc(-c3ccc4cnn(C5COC5)c4c3)no2)CC1 [Compound 664] | 7.64 | 4.63
Cc1nn(C)c2cc(-c3noc(C4CCN(C(=O)CN)CC4(F)F)n3)ccc12 (stereo not shown) [Compound 665] | 5.30 | < 4.35
CC(C)n1ncc2ccc(-c3noc(C4CCN(C(=O)N5CCCC5C#N)CC4)n3)cc21 (stereo not shown) [Compound 666] | < 4.35 | < 4.35
CC(C)n1ncc2ccc(-c3noc(N4C[C@@H]5CN(C(=O)OC(C)(C)C)C[C@H]5C4)n3)cc21 [Compound 667] | 6.06 | < 4.35
CCOC(=O)N1CCN(c2nc(-c3ccc4cnn(C(C)C)c4c3)no2)CC1 [Compound 668] | 6.14 | < 4.35
Cc1nn(C)c2cc(-c3noc(C4CCN(c5nc6ccccc6o5)CC4)n3)ccc12 [Compound 669] | < 4.35 | < 4.35
CC(C)c1noc2ccc(-c3noc(C4CCN(C(=O)CC5(C)CC5)CC4)n3)cc12 [Compound 670] | 5.42 | < 4.35
CC(C)n1ncc2ccc(N3CC4(CCN(C(=O)OC(C)(C)C)CC4)OC3=O)cc21 [Compound 671] | < 4.35 | < 4.35
CC(C)(C)OC(=O)N1CCC(c2nc(-c3cccc(OC4COC4)c3)no2)CC1 [Compound 672] | 6.36 | < 4.35
CC(C)n1ncc2ccc(-c3noc(C4CCN(S(=O)(=O)C5CCCCC5)CC4)n3)cc21 [Compound 673] | 4.47 | < 4.35

SMILES | pIC50 (SCD5) | pIC50 (SCD1)
CC(C)(C)CC(=O)N1CCC(c2nc(-c3ccc4cn(C(=O)C5CC5)nc4c3)no2)CC1 [Compound 674] | < 4.35 | < 4.35
COC1CCC(S(=O)(=O)N2CCC(c3nc(-c4ccc5cnn(C(C)C)c5c4)no3)CC2)CC1 (stereo not shown) [Compound 675] | 8.00 | < 4.35
COC(=O)N1CCC(c2noc(-c3ccc4cnn(C5COC5)c4c3)n2)CC1 [Compound 676] | 7.89 | < 4.35
Cc1nn(C)c2cc(-c3noc(C4CCN(C(=O)CCC(F)(F)F)CC4)n3)ccc12 [Compound 677] | < 4.35 | < 4.35
CNC(=O)Cn1cc2ccc(-c3noc(C4CCN(C(=O)OC(C)(C)C)CC4)n3)cc2n1 [Compound 678] | 5.41 | < 4.35
CC(C)n1ncc2ccc(-c3noc(C4CCN(C(=O)CNC(=O)c5ccccc5)CC4(F)F)n3)cc21 (stereo not shown) [Compound 679] | < 4.35 | < 4.35
Cc1nn(C)c2cc(-c3noc(C4CCN(C(=O)CC5CNC5)CC4)n3)ccc12 [Compound 680] | < 4.35 | < 4.35
CC(C)n1ncc2ccc(-c3noc(C4CCN(C(=O)CNC(=O)c5ccc(F)cc5)CC4(F)F)n3)cc21 (stereo not shown) [Compound 681] | < 4.35 | < 4.35
CC(C)n1ncc2ccc(-c3nc(N4CCN(C(=O)OC5(C)CC5)CC4)no3)cc21 [Compound 682] | 8.00 | < 4.35
CC(C)(C)OC(=O)N[C@H]1CC[C@@H](c2nc(-c3ccc4cnn(C5COC5)c4c3)no2)CC1 [Compound 683] | 4.99 | < 4.35
CC(C)n1ncc2ccc(-c3noc(C4CCN(C(=O)N5CCC5(C)C)CC4)n3)cc21 [Compound 684] | < 4.35 | < 4.35
O=C(c1ccccc1)N1CCC(c2noc(-c3ccc4cnn(C5COC5)c4c3)n2)CC1 [Compound 685] | 6.74 | < 4.35
CC(C)n1ncc2ccc(-c3noc(C4CCN(C(=O)CN(C)C)CC4)n3)cc21 [Compound 686] | < 4.35 | < 4.35
CC(C)n1ncc2ccc(-c3noc(C4CCN(C(=O)N5CCCC5(C)CO)CC4)n3)cc21 (stereo not shown) [Compound 687] | < 4.35 | < 4.35
CC(C)n1ncc2ccc(-c3noc(C4CCN(C(=O)C5(C#N)CC5)CC4)n3)cc21 [Compound 688] | 5.82 | < 4.35
CC(C)n1ncc2ccc(-c3noc(N4CCN(C(=O)OC5CC5)CC4)n3)cc21 [Compound 689] | 6.18 | < 4.35
CC(C)(C)OC(=O)N1CCC(c2nc(-c3ccc4cnn(C5CS(=O)(=O)C5)c4c3)no2)CC1 [Compound 690] | 6.88 | < 4.35
CC(C)n1ncc2ccc(-c3nnc(C4CCN(C(=O)CC5(C)CC5)CC4)[nH]3)cc21 [Compound 691] | < 4.35 | < 4.35
CC(C)n1ncc2ccc(-c3nc(C4CCN(C(=O)c5ncccc5Cl)CC4)no3)cc21 [Compound 692] | 6.31 | < 4.35

SMILES | pIC50 (SCD5) | pIC50 (SCD1)
CC1(CC(=O)N2CCN(c3nc(-c4ccc5cnn(C6COC6)c5c4)no3)CC2)CC1 [Compound 693] | 5.78 | < 4.35
CC(C)(C)CC(=O)N1CCC(c2nc(-c3ccc4cnn(C(=O)C5COC5)c4c3)no2)CC1 [Compound 694] | < 4.35 | < 4.35
O=C(c1ncccc1Cl)N1CCC(c2noc(-c3ccc4cnn(C5COC5)c4c3)n2)CC1 [Compound 695] | 5.62 | < 4.35
O=C(c1ccccc1F)N1CCC(c2noc(-c3ccc4cnn(C5COC5)c4c3)n2)CC1 [Compound 696] | 7.10 | < 4.35
O=C(c1ccccc1Cl)N1CCC(c2noc(-c3ccc4cnn(C5COC5)c4c3)n2)CC1 [Compound 697] | 7.23 | < 4.35
O=C(c1sccc1Cl)N1CCC(c2noc(-c3ccc4cnn(C5COC5)c4c3)n2)CC1 [Compound 698] | 7.59 | < 4.35
CC(C)n1nc(CCO)c2ccc(-c3noc(C4CCN(C(=O)OC(C)(C)C)CC4)n3)cc21 [Compound 699] | 5.12 | < 4.35
CC(C)(C)OC(=O)N1CC(c2nc(-c3ccc4cnn(C5COC5)c4c3)no2)C1 [Compound 700] | 6.15 | < 4.35
CC(C)(C)OC(=O)N1CCN(c2nc(-c3ccc4cn(C5COC5)nc4c3)no2)CC1 [Compound 701] | < 4.35 | < 4.35
COCCc1nn(C(C)C)c2cc(-c3noc(C4CCN(C(=O)OC(C)(C)C)CC4)n3)ccc12 [Compound 702] | < 4.35 | < 4.35
CC(C)n1ncc2ccc(-c3noc(C4CCN(C(=O)C5(C)CCCO5)CC4)n3)cc21 (stereo not shown) [Compound 703] | 6.92 | < 4.35
Cc1nnc(N2CCC(c3nc(-c4ccc5cnn(C(C)C)c5c4)no3)CC2)o1 [Compound 704] | 5.78 | < 4.35
CC(C)n1ncc2ccc(-c3noc(C4CCN(C(=O)C56CC(C5)C6)CC4)n3)cc21 [Compound 705] | 6.76 | 4.84
CC(C)n1ncc2ccc(-c3noc(C4CCN(C(=O)C5CCCN5C)CC4)n3)cc21 (stereo not shown) [Compound 706] | < 4.35 | < 4.35
CC(C)(C)CC(=O)N1CC(c2nc(-c3ccc4cnn(C5COC5)c4c3)no2)C1 [Compound 707] | 4.84 | < 4.35
CC(C)(C)OC(=O)N1CC(c2nc(-c3ccc4cn(C5COC5)nc4c3)no2)C1 [Compound 708] | < 4.35 | < 4.35
CC(C)(C)COC(=O)N1CC(c2nc(-c3ccc4cnn(C5COC5)c4c3)no2)C1 [Compound 709] | 5.32 | < 4.35
CC(=O)N1CC(n2ncc3ccc(-c4noc(C5CCN(C(=O)OC(C)(C)C)CC5)n4)cc32)C1 [Compound 710] | 7.30 | < 4.35
